The values that follow come from US7015329B2 (Janssen Pharmaceutica N. V., priority 2003, dated 2006).

Holding throughout (format): cell-based
The target of one test is T1, PPAR alpha (Homo sapiens, UniProt Q07869).
T1 construct: expressed in transfected cells; host or cells: HEK293
T1 sequence (Q07869 239-466 limits assumed): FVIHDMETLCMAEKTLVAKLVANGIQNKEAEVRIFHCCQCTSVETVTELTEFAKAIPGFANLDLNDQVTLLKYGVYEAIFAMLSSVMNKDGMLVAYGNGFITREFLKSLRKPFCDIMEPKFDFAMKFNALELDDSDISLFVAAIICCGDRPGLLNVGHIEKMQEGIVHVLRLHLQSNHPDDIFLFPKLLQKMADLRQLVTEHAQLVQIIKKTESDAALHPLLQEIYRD
The test is described as follows: Transfection assay for PPAR receptors (GAL4-LBD luciferase reporter), PPAR alpha. Particulars: 18–24 hrs. As for the experimental part:
(§1) Transfection Assay Method for PPAR Receptors
(§2) HEK293 cells were grown in DMEM/F12 medium supplemented with 10% FBS and glutamine (Invitrogen) and incubated in a 5% CO2 incubator at 37° C. The cells were co-transfected using DMRIE-C reagent (Invitrogen) in serum free medium (Opti-MEM, Invitrogen) with two mammalian expression plasmids, one containing the DNA sequence coding for the ligand binding domains of either PPARαg or d fused to the yeast GAL4 DNA binding domain and the other containing the promoter sequence of the yeast GAL4 (UAS) fused to the firefly luciferase cDNA reporter. The next day, the medium was changed to DMEM/F12 medium supplemented with 5% charcoal treated serum (Hyclone) and glutamine. After 6 hrs the cells were trypsinized and seeded at a density of 50,000 cells/well into 96 well plates and incubated overnight as above. The cells were then treated with -test compounds or vehicle and incubated for 18–24 hrs as above. Luciferase reporter activity was measured using the Steady-Glo Luciferase Assay Kit from Promega. DMRIE-C Reagent was purchased from GIBCO Cat. No.10459-014. OPTI-MEM I Reduced Serum Medium was purchased from GIBCO (Cat. No. 31985). Steady-Glo Luciferase Assay Kit was purchased from Promega (Part#E254B).
A variety of example compounds have been made and tested, with a range of in vitro results. Below are representative compounds and data; in some cases, where multiple EC50's are shown, multiple measurements were taken. Naturally, different compounds in Formula (I) may have not have activities identical to any one compound below.

The target of a further test is T2, PPAR delta (Homo sapiens, UniProt Q03181).
T2 construct: expressed in transfected cells; host or cells: HEK293
T2 sequence (Q03181 211-439 limits assumed): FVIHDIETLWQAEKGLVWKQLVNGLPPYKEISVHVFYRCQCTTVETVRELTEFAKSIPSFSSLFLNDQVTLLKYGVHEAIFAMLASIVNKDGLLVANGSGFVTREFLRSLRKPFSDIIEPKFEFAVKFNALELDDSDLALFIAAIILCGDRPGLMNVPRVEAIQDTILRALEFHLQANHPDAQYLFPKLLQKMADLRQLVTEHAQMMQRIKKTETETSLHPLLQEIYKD
Briefly: Transfection assay for PPAR receptors (GAL4-LBD luciferase reporter), PPAR delta. Particulars: Table 1; HEK293 cells co-transfected with PPAR LBD-GAL4 and GAL4 (UAS) luciferase reporter, 18–24 hrs. How it is done:
as §1
as §2, with “OPTI-MEM I Reduced Serum Medium was purchased from GIBCO (Cat. No. 31985).” left out

The target in a further test is T3, PPAR gamma (Homo sapiens, UniProt P37231).
T3 construct: expressed in transfected cells; host or cells: HEK293
T3 sequence (P37231 238-503 limits assumed): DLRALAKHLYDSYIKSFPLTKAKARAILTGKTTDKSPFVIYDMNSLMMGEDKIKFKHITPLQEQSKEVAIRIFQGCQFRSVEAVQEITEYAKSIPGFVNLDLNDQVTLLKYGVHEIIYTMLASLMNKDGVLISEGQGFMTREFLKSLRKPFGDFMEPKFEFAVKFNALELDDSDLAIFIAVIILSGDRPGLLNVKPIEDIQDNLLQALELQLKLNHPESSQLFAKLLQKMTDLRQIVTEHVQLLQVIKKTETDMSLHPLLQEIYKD
Briefly: Transfection assay for PPAR receptors (GAL4-LBD luciferase reporter), PPAR gamma. Conditions: 18–24 hrs. As for the experimental part: as §1
as §2, with “OPTI-MEM I Reduced Serum Medium was purchased from GIBCO (Cat. No. 31985).” left out
On the technique in general: Reporter assays use an easily measured gene product as a stand-in for the process of interest.

Where [1] appears, read: Table 1, HEK293 cells co-transfected with PPAR LBD-GAL4 and GAL4 (UAS) luciferase reporter.
Setting [2] is: Table 2, compounds of interest, HEK293 cells, PPAR LBD-GAL4 luciferase reporter.

In the case of `Cc1cc(SCc2nc(-c3ccc(C(F)(F)F)cc3)ns2)ccc1OCC(=O)O` [Compound 1, {2-Methyl-4-[3-(4-trifluoromethyl-phenyl)-[1,2,4]thiadiazol-5-ylmethylsulfanyl]-phenoxy}-acetic acid], the EC50 on PPAR alpha (setting [1]) is 468 nM; at PPAR delta, 10 nM.
The like results for `CC(C)(Oc1ccc(SCc2nc(-c3ccc(C(F)(F)F)cc3)ns2)cc1)C(=O)O` [Compound 2, 2-Methyl-2-{4-[3-(4-trifluoromethyl-phenyl)-[1,2,4]thiadiazol-5-ylmethylsulfanyl]-phenoxy}-propionic acid] were, in that order, 155 nM and 20 nM.
The like results for `Cc1cc(SCc2nc(-c3ccc(C(F)(F)F)cc3)ns2)ccc1OC(C)(C)C(=O)O` [Compound 3, 2-Methyl-2-{2-methyl-4-[3-(4-trifluoromethyl-phenyl)-[1,2,4]thiadiazol-5-ylmethylsulfanyl]-phenoxy}-propionic acid] were, in that order, 87 nM and 7.5 nM.
`Cc1cc(SCc2nc(-c3ccc(OC(F)(F)F)cc3)ns2)ccc1OC(C)(C)C(=O)O` [Compound 4, 2-Methyl-2-{2-methyl-4-[3-(4-trifluoromethoxy-phenyl)-[1,2,4]thiadiazol-5-ylmethylsulfanyl]-phenoxy}-propionic acid]: the values for the concentration for a half-maximal effect (EC50) on PPAR gamma (setting [1]) and at PPAR alpha (setting [1]) were 11600 nM and 33 nM, respectively.
Regarding `Cc1ccc(-c2nsc(CSc3ccc(OC(C)(C)C(=O)O)c(C)c3)n2)cc1` [Compound 5, 2-Methyl-2-[2-methyl-4-(3-p-tolyl-[1,2,4]thiadiazol-5-ylmethylsulfanyl)-phenoxy]-propionic acid], the EC50 at PPAR gamma (setting [1]) is > 3000 nM; at PPAR alpha (setting [1]), 222 nM; at PPAR delta it was 47 nM.
Taken in the same sequence, the figures for `Cc1cc(SCc2nc(-c3ccc(C(C)(C)C)cc3)ns2)ccc1OC(C)(C)C(=O)O` [Compound 6, 2-{4-[3-(4-tert-Butyl-phenyl)-[1,2,4]thiadiazol-5-ylmethylsulfanyl]-2-methyl-phenoxy}-2-methyl-propionic acid] were > 3000 nM, 64 nM and 93 nM.
Taken in the same sequence, the figures for `Cc1cc(SCc2nc(-c3ccc(Cl)cc3)ns2)ccc1OC(C)(C)C(=O)O` [Compound 7, 2-{4-[3-(4-Chloro-phenyl)-[1,2,4]thiadiazol-5-ylmethylsulfanyl]-2-methyl-phenoxy}-2-methyl-propionic acid] were > 3000 nM, 186 nM and 18 nM.
As for `Cc1cc(SCc2nc(-c3ccc(OC(F)(F)F)c(Cl)c3)ns2)ccc1OC(C)(C)C(=O)O` [Compound 8, 2-{4-[3-(3-Chloro-4-trifluoromethoxy-phenyl)-[1,2,4]thiadiazol-5-ylmethylsulfanyl]-2-methyl-phenoxy}-2-methyl-propionic acid], the EC50 on PPAR gamma (setting [1]) is > 3000 nM; on PPAR alpha (setting [1]), 28 nM; on PPAR delta it was 2.8 nM.
Turning to `Cc1cc(SCc2nc(-c3ccc(Cl)c(Cl)c3)ns2)ccc1OC(C)(C)C(=O)O` [Compound 9, 2-{4-[3-(3,4-Dichloro-phenyl)-[1,2,4]thiadiazol-5-ylmethylsulfanyl]-2-methyl-phenoxy}-2-methyl-propionic acid], the results for the EC50 at PPAR gamma (setting [1]), on PPAR alpha (setting [1]) and at PPAR delta were > 3000 nM, 104 nM and 13 nM, respectively.
Turning to `Cc1cc(SCc2nc(-c3ccc(Cl)cc3Cl)ns2)ccc1OC(C)(C)C(=O)O` [Compound 10, 2-{4-[3-(2,4-Dichloro-phenyl)-[1,2,4]thiadiazol-5-ylmethylsulfanyl]-2-methyl-phenoxy}-2-methyl-propionic acid], the values for the concentration for a half-maximal effect (EC50) on PPAR gamma (setting [1]), on PPAR alpha (setting [1]) and on PPAR delta were > 3000 nM, 476 nM and 102 nM, respectively.
For `Cc1ccc(-c2nsc(CSc3ccc(OC(C)(C)C(=O)O)c(C)c3)n2)cc1C` [Compound 11, 2-{4-[3-(3,4-Dimethyl-phenyl)-[1,2,4]thiadiazol-5-ylmethylsultanyl]-2-methyl-phenoxy}-2-methyl-propionic acid], the results for the half-maximal effective concentration (EC50) on PPAR alpha (setting [1]) and at PPAR delta were 115 nM and 93 nM, respectively.
`Cc1ccc(-c2nsc(CSc3ccc(OC(C)(C)C(=O)O)c(C)c3)n2)cc1Cl` [Compound 12, 2-{4-[3-(3-Chloro-4-methyl-phenyl)-[1,2,4]thiadiazol-5-ylmethylsulfanyl]-2-methyl-phenoxy}-2-methyl-propionic acid]: the EC50 at PPAR gamma (setting [1]) amounted to 669 nM; on PPAR alpha (setting [1]) it was 68 nM; at PPAR delta, 27 nM.
With `Cc1cc(SCc2nsc(-c3ccc(OC(F)(F)F)cc3)n2)ccc1OC(C)(C)C(=O)O` [Compound 17, 2-Methyl-2-{2-methyl-4-[5-(4-trifluoromethoxy-phenyl)-[1,2,4]thiadiazol-3-ylmethylsulfanyl]-phenoxy}-propionic acid], the EC50 came to 656 nM at PPAR alpha (setting [1]) and 58 nM at PPAR delta.
`Cc1cc(OCc2nc(-c3ccc(C(F)(F)F)cc3)ns2)ccc1OC(C)(C)C(=O)O` [Compound 23, 2-Methyl-2-{2-methyl-4-[3-(4-trifluoromethyl-phenyl)-[1,2,4]thiadiazol-5-ylmethoxy]-phenoxy}-propionic acid]: the EC50 on PPAR gamma (setting [1]) was > 3000 nM; on PPAR alpha (setting [1]), 94 nM.
Take `Cc1cc(SCCc2nc(-c3ccc(C(F)(F)F)cc3)ns2)ccc1OC(C)(C)C(=O)O` [Compound 28, 2-Methyl-2-(2-methyl-4-{2-[3-(4-trifluoromethyl-phenyl)-[1,2,4]thiadiazol-5-yl]-ethylsulfanyl}-phenoxy)-propionic acid]: the results for the concentration for a half-maximal effect (EC50) at PPAR gamma (setting [1]) and at PPAR alpha (setting [1]) were 465 nM and 37.3 nM, respectively.
Consider `Cc1cc(SCc2cc(-c3ccc(C(F)(F)F)cc3)sn2)ccc1OCC(=O)O` [Compound b, {2-Methyl-4-[5-(4-trifluoromethyl-phenyl)-isothiazol-3-ylmethylsulfanyl]-phenoxy}-acetic acid], for which the concentration giving a half-maximal response (EC50) on PPAR gamma (setting [2]) and at PPAR alpha (setting [2]) was > 3000 nM in each case.
As to `Cc1cc(SCc2cc(-c3ccc(C(F)(F)F)cc3)ns2)ccc1OCC(=O)O` [Compound c, {2-Methyl-4-[3-(4-trifluoromethyl-phenyl)-isothiazol-5-ylmethylsulfanyl]-phenoxy}-acetic acid], the concentration giving a half-maximal response (EC50) is > 3000 nM at PPAR gamma (setting [2]) and > 1000 nM on PPAR alpha (setting [2]).
For the molecule `Cc1cc(SCc2cc(-c3ccc(C(F)(F)F)cc3)no2)ccc1OCC(=O)O` [Compound f, {2-Methyl-4-[3-(4-trifluoromethyl-phenyl)-isoxazol-5-ylmethylsulfanyl]-phenoxy}-acetic acid], the EC50 on PPAR gamma (setting [2]) and at PPAR alpha (setting [2]) was > 3000 nM each time.
In the case of `Cc1cc(SCc2cc(-c3ccc(C(F)(F)F)cc3)on2)ccc1OCC(=O)O` [Compound g, {2-Methyl-4-[5-(4-trifluoromethyl-phenyl)-isoxazol-3-ylmethylsulfanyl]-phenoxy}-acetic acid], the half-maximal effective concentration (EC50) was > 3000 nM at PPAR gamma (setting [2]) and 2210 nM at PPAR alpha (setting [2]).
As for “{2-Methyl-4-[5-(4-trifluoromethyl-phenyl)-pyridin-3-ylmethylsulfanyl]-phenoxy}-acetic acid [Compound e]”, the concentration for a half-maximal effect (EC50) at PPAR alpha (setting [2]) is > 3000 nM.

Broadly, the EC50 is the midpoint of the concentration-response curve. A low value points to a more potent agent.
